{"source": "ChEMBL document CHEMBL1147038", "about": "“Structural basis for the specific inhibition of protein kinase G, a virulence factor of Mycobacterium tuberculosis” (Proc Natl Acad Sci U S A, 2007)", "key": {"[1]": {"molecular_target": "Serine/threonine-protein kinase PknG (Mycobacterium tuberculosis) (UniProt P9WI73)", "sequence (P9WI73 whole entry)": "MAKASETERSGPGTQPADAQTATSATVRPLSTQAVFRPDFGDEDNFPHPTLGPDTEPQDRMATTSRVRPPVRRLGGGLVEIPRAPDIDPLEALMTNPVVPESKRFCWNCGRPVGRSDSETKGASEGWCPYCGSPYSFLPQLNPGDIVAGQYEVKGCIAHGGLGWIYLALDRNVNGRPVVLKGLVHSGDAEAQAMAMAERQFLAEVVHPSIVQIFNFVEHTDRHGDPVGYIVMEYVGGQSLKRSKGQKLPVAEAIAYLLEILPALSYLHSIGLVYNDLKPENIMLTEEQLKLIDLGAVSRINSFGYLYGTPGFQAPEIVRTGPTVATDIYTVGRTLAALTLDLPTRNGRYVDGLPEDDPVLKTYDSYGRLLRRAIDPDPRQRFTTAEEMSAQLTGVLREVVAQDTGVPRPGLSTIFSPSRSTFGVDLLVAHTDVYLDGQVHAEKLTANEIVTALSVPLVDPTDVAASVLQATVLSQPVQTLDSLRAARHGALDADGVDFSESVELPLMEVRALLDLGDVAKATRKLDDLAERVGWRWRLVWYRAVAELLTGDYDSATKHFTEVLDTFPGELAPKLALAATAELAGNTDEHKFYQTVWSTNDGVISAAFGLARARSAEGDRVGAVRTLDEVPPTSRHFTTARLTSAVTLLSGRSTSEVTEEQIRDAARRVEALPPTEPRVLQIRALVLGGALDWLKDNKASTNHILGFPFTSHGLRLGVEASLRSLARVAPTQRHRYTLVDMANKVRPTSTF", "assay": "Inhibition of Mycobacterium tuberculosis Protein kinase G by radiometric ATP consumptive assay"}, "[2]": {"tested_on": "J774", "assay": "Effect on Phorbol 12-myristate 13-acetate-induced cellular morphology in mouse J774 macrophage cells at 20 uM by video microscopy", "assay_type": "functional, cell-based"}, "[3]": {"tested_on": "J774", "assay": "Effect on Phorbol 12-myristate 13-acetate-induced membrane ruffling in mouse J774 macrophage cells at 20 uM by video microscopy", "assay_type": "functional, cell-based"}, "[4]": {"tested_on": "J774", "assay": "Effect on Phorbol 12-myristate 13-acetate-induced macropinocytosis in mouse J774 macrophage cells at 20 uM by video microscopy", "assay_type": "functional, cell-based"}}, "note": "Calls of active or inactive are those of the source. The rule behind the calls is not given here."}
{"smiles": "NC(=O)c1c(NC(=O)C2CC2)sc2c1CCCC2", "values": [{"measurement": "Activity", "setting": "[1]", "result": "Active"}, {"measurement": "Activity", "setting": "[2]", "result": "inactive"}, {"measurement": "Activity", "setting": "[3]", "result": "inactive"}, {"measurement": "Activity", "setting": "[4]", "result": "inactive"}]}
